Assay results from PubChem BioAssay AID2060354 (Molecular Pharmacology Branch, DTP, NCI, 2025).

Test system: 519858-162-T-J1-PDC spheroid growth inhibition
Test: Anticancer human tumor 519858-162-T-J1-PDC patient-derived colon adenocarcinoma cell line growth inhibition [TAK]
Conditions: spheroids with HUVEC and MSC; for IC50: curve of first compound; for viability, T/C: stronger effect = lower value
Source text: Combinatorial screen of targeted agents with TAK-243 and ipatasertib in multi-cell type tumor spheroids
A high-throughput screen of multi-cell type tumor spheroids was designed to identify active combinations of targeted small molecules and TAK-243 or ipatasertib. Complex spheroids include a stromal component modeled by human endothelial cells (HUVEC) and fibroblasts modeled by human mesenchymal stem cells (MSCs). The concentration ranges selected for each drug and investigational agent were based upon clinically achievable concentrations if the clinical Cmax of the agent was known.
Compounds. The drugs and investigational agents: TAK-243 (785004), ipatasertib (767898), everolimus (733504), selumetinib (741078), bortezomib (756655), trametinib (758246), ixazomib (758254), vemurafenib (761431), dabrafenib (764134), sapanisertib (764658), alpelisib (765974), and copanlisib (816437), were obtained from the National Cancer Institute (NCI) Developmental Therapeutics Program Chemical Repository. The FDA-approved anticancer drug set is available from the NCI Developmental Therapeutics Program. […] The stock solutions were prepared in dimethyl sulfoxide (DMSO, Sigma-Aldrich, St. Louis, MO, cat. D2650) at 800-fold the tested concentration and stored at -70 degrees C prior to their use. All drugs and investigational agents were tested over a range starting from a high concentration at or near the clinical Cmax and decreasing in half-log increments. If the clinical Cmax for an agent had not been determined, the highest concentration tested was 10 microM.
NCI60 Cell Culture. NCI60 cell lines were obtained from the NCI Developmental Therapeutics Program Tumor Repository. For each lot of cells, the Repository performed Applied Biosystems AmpFLSTR Identifiler testing with PCR amplification to confirm consistency with the published Identifier STR profile for each cell line. Cells were kept in continuous culture for no more than 20 passages. The optimal seeding densities for each of the cell lines at each time point assessed were determined prior to performing the concentration response studies. Briefly, the NCI60 human tumor lines were grown as monolayers in RPMI 1640 medium supplemented with 10% FBS and 2 mmol/L L-glutamine.
An additional 2 lines were from the NCI60 cell line panel including melanomas, MALME-3M and SK-MEL-2. Pooled donor human umbilical vein endothelial cells (HUVEC, Lonza, cat. CC-2519) and human mesenchymal stem cells (hMSC, Lonza, cat. PT-2501) were purchased from Lonza (Walkersville, MD).
PDMR cell lines were grown in complete medium (DC medium): Dulbecco's modified Eagle's medium (DMEM)/F12 supplemented with 5% fetal bovine serum (FBS), 2 mM L-glutamine, 100 U/mL penicillin and 100 µg/ml streptomycin, 0.4 µg/ml hydrocortisone, 10 ng/ml epidermal growth factor (EGF) recombinant human protein, 24 µg/mL adenine, and 0.1 mg/mL primocin. During culture from frozen stock vials, PDMR cells were cultured in the same medium containing 10 µM Y-27632 (see Table 3). The PDCs were cultured in complete DMEM/F12 media without 10 microM Y-27632 dihydrochloride for at least two passages prior to the screen. The pooled donor HUVEC and hMSC were cultured in endothelial cell growth medium 2 (PromoCell, Heidelberg, Germany, cat. C-22011) and mesenchymal stem cell growth medium 2 (PromoCell, cat. C-28009), respectively. For all experiments, HUVEC and hMSC were used at passages </=5.
For the pre-screen, cell seeding densities were determined from a titration spanning the range from 5,000 to 313 cells per well. The mct-spheroids including 60% malignant cells, 25% HUVEC and 15% MSC dispensed as a mixture into U-bottom Ultra-Low Attachment 384-well plates (Corning, NY)
High-throughput Drug Combination Screening.
Prior to their inoculation into 384-well plates, malignant cells, HUVEC, and hMSC were removed from T flasks using TrypLE express (Thermo Fisher Scientific, cat. 12605036) and harvested by centrifugation for 5 min at 233 x g. […]
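Note: spheroids exposed to drugs for 7 days.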

Compound `Cn1cnc2c(F)c(Nc3ccc(Br)cc3Cl)c(C(=O)NOCCO)cc21` + CC(C)NCC(C(=O)N1CCN(c2ncnc3c2C(C)CC3O)CC1)c1ccc(Cl)cc1 has an IC50 (second compound 0.3 µM) of 77.5 nM, an IC50 (second compound 0.949 µM) of 68.7 nM and an IC50 (second compound 3 µM) of 95.4 nM. For the same compound, the IC50 (second compound 9.49 µM) was 139 nM, the IC50 (second compound 30 µM) was 162 nM and the viability, T/C (second compound 0.3 µM, first compound 0.00949 µM) was 80.3%. It also gave a viability, T/C (second compound 0.3 µM, first compound 0.03 µM) of 62.7%, a viability, T/C (second compound 0.3 µM, first compound 0.0949 µM) of 49% and a viability, T/C (second compound 0.3 µM, first compound 0.3 µM) of 30.5%. It also gave a viability, T/C (second compound 0.3 µM, first compound 0.949 µM) of 17%, a viability, T/C (second compound 0.3 µM, first compound 3 µM) of 14% and a viability, T/C (second compound 0.949 µM, first compound 0.00949 µM) of 88.5%. For the same compound, the viability, T/C (second compound 0.949 µM, first compound 0.03 µM) was 64%, the viability, T/C (second compound 0.949 µM, first compound 0.0949 µM) was 44.1% and the viability, T/C (second compound 0.949 µM, first compound 0.3 µM) was 32.8%. The viability, T/C (second compound 0.949 µM, first compound 0.949 µM) was 15.7%, the viability, T/C (second compound 0.949 µM, first compound 3 µM) was 16.8% and the viability, T/C (second compound 3 µM, first compound 0.00949 µM) was 73.8%. For the same compound, the viability, T/C (second compound 3 µM, first compound 0.03 µM) was 66.9%, the viability, T/C (second compound 3 µM, first compound 0.0949 µM) was 50.1% and the viability, T/C (second compound 3 µM, first compound 0.3 µM) was 30.7%. The viability, T/C (second compound 3 µM, first compound 0.949 µM) was 24.6%, the viability, T/C (second compound 3 µM, first compound 3 µM) was 15.5% and the viability, T/C (second compound 9.49 µM, first compound 0.00949 µM) was 84.2%. The viability, T/C (second compound 9.49 µM, first compound 0.03 µM) was 85.3%, the viability, T/C (second compound 9.49 µM, first compound 0.0949 µM) was 53.8% and the viability, T/C (second compound 9.49 µM, first compound 0.3 µM) was 36.2%. For the same compound, the viability, T/C (second compound 9.49 µM, first compound 0.949 µM) was 23.4%, the viability, T/C (second compound 9.49 µM, first compound 3 µM) was 17% and the viability, T/C (second compound 30 µM, first compound 0.00949 µM) was 101%. For the same compound, the viability, T/C (second compound 30 µM, first compound 0.03 µM) was 79%, the viability, T/C (second compound 30 µM, first compound 0.0949 µM) was 68.7% and the viability, T/C (second compound 30 µM, first compound 0.3 µM) was 32.2%. It also gave a viability, T/C (second compound 30 µM, first compound 0.949 µM) of 21% and a viability, T/C (second compound 30 µM, first compound 3 µM) of 21.4%.
